Converted amounts (≈) assume the structure as drawn. Where two headings read alike, the source gives them in different places.
How the values were obtained:
Format in all cases: cell-based
tumor cell = experiment: inhibition of tumor cell growth (general statement); details: in words
[1] = tested on: P388 murine leukemia cells; experiment: antiproliferative effect against P388 murine leukemia cells (MTT, 48 hour exposure); details: for IC50: Mus musculus, P388
Procedure: (§1) Lasonolide A was tested for toxicity against P388 murine leukemia cells and A549 human lung carcinoma cells, and for their ability to perturb signal transduction pathways associated with activation of protein kinase C (PKC) and EL-4 cell adherence.
(§2) A. Maintenance of cell line. The P388 murine leukemia cells were obtained from Dr. J. Mayo, National Cancer Institute, Bethesda, Md. The A549 cells and EL-4.IL-2 cells (TIB) were obtained from the American Type Culture Collection, Rockville, Md. The P388 cells were maintained in Roswell Park Memorial Institute medium 1640 (RPMI-1640) supplemented with 10% horse serum and cultured in plastic tissue culture flasks and kept in an incubator at 37° C. in humidified air containing 5% CO2. The A549 cells were similarly maintained in RPMI-1640 but supplemented with 10% fetal bovine serum. Antibiotic-free stock cultures of P388 and A549 cells were subcultured to 10^5 cells/mi by dilutions in fresh growth medium at 2 to 5 day intervals. The EL-4 cells were similarly maintained but supplemented with 10% v/v heat-inactivated fetal calf serum, 100 U/ml penicillin, 100 μg/ml streptomycin, 6/ μg/ml L-glutamine, and 5×10^-3 M 2-mercaptoethanol (TCM) (Grand Island Biologicals Co., Grand Island, N.Y.).
B. Procedure. […]
(§3) To quantitate the effects of Lasonolide A or its analogs on cell proliferation, 75 μl warm growth medium containing 5 mg/ml MTT was added to each well. […] To spectrophotometrically quantitate formation of reduced formazan, plates were centrifuged (900 g, 5 minutes), culture fluids were removed by aspiration, and 200 μl of acidified isopropanol (2 ml concentrated HCl/L isopropanol) added per well. The absorbance of the resulting solutions was measured at 570 nm with a plate reader (MR700 Microplate Reader, Dynatech Laboratories, Chantilly, Va.). […]

[2] = tested on: EL-4 cell adherence (protein kinase C); experiment: EL-4 adherence assay (PKC-associated, with or without PMA); design: key to EL-4 Adherence: Inh: inhibition; details: for IC50: Mus musculus, EL4
Procedure: as §1, §2
Cells were passaged every 3-4 days. Viability was determined by Trypan blue exclusion and always exceeded 80%. For the adherence assay, cells were utilized within 15 passages of frozen stock cultures. Phorbol-12-myristate-13-acetate (PMA), and 4α-phorbol-12-myristate-13-acetate (4α-PMA) were obtained from LC Services Corporation (Woburn, Mass.). Stock solutions of PMA and 4α-PMA were prepared in DMSO and were stored at -70° C. prior to use.
To assess the effect of the subject compound on EL-4 cells, EL-4 cells (2.5×10^5 /well) were cultured in 96-well, flat-bottomed microtiter test plates at 37° C. with the sponge metabolites in triplicate concentrations in the presence (Plate #1) or absence (Plate #2) of PMA (16 nM final concentration). […] Controls consisted of cells incubated alone (negative control) and cells incubated with PMA (positive control). An additional control plate (Plate #3), consisting of EL-4.1IL-2 cells and identical dilutions of compounds in the absence of PMA served as a cytotoxicity plate and was not processed for adherence as described below, but used to monitor the potential cytotoxic effect of compounds for EL-4.1IL2 cells. Incubation time was 1 hour at 37° C. Following the incubation period, Plates #1 and #2 were processed as follows: the contents of each well were removed by flicking the plates into a catch tray and placing the plates inverted onto a paper towel in order to drain and blot the remaining draining wells. To each well, a volume of 100 μl of TCM was added at room temperature and the plates placed on a rotating platform shaker (Mini-Orbital Shaker, BELLCO Biotechnology, Vineland, N.J.) at setting 5 for 4 minutes. The plates were then rotated 180° and subjected to an additional 4 minutes of shaking. The plates were removed and their contents again removed as described, blotted, TCM added to each well, and the plates placed on the rotating shaker. This process was repeated for two additional wash cycles.
Following the removal of well contents, a volume of 200 μl of TCM and 75 of MTT solution (2 mg/ml in TCM) was added to each well of all plates. Plates were incubated at 37° C. for an additional 4 hours. Following incubation, the contents of Plates #1 and #2 were again removed by flicking the plate into the sink and the plates blotted onto paper towels. Plate #3 was centrifuged and likewise blotted. A volume of 200 μl of iPrOH was then added to each well of all plates in order to dissolve the resulting formazan crystals. The plates were read at 570 nm using a plate reader (Microplate Autoreader, Model EL-311, BIO-TEK Instruments, Inc., Winooski, Vt.). The absorbances for each set of triplicate wells were averaged and the standard error determined. […]

[3] = tested on: A549 human lung carcinoma cells; experiment: antiproliferative effect against A549 human lung carcinoma cells (MTT, 72 hours)
Procedure: as §1
A. Maintenance of cell line. The P388 murine leukemia cells were obtained from Dr. J. Mayo, National Cancer Institute, Bethesda, Md. The A549 cells and EL-4.IL-2 cells (TIB) were obtained from the American Type Culture Collection, Rockville, Md. The P388 cells were maintained in Roswell Park Memorial Institute medium 1640 (RPMI-1640) supplemented with 10% horse serum and cultured in plastic tissue culture flasks and kept in an incubator at 37° C. in humidified air containing 5% CO2. The A549 cells were similarly maintained in RPMI-1640 but supplemented with 10% fetal bovine serum. […]
as §3

C=C(CCC(C)C)COC(=O)C(O)C/C=C/CC1OC2/C=C\C/C=C/C(C)=C\C3OC(C/C=C/C=C/C(=O)OC(C2)C1(C)CO)CC(O)C3C (stereo not shown) [Lasonolide A]
inhibition of tumor cell growth (tumor cell): inhibit tumor cell growth
IC50 ([1]; Table 4, MTT, 48 hours, read-out: P388 IC50): 0.002 µg/mL (≈ 0.00287 µM)
IC50 ([1]; read-out: IC50 against mouse leukemia cells): < 0.01 µg/mL
inhibitory properties against mouse leukemia cells ([1]; in words): strong inhibitory properties
IC50 ([2]; Table 4, Assay # 38, read-out: EL-4 Adherence IC50): 0.019 µg/mL (≈ 0.0273 µM)
IC50 ([2]; unit inferred, read-out: IC50 by EL-4 Adherence): 0.019 µg/mL (≈ 0.0273 µM)
EL-4 Adherence ([2]; Table 4, 3.125 μg/ml): Inh
EL-4 Adherence ([2]; Table 4, 6.25 μg/ml): Inh
EL-4 Adherence ([2]; Table 4, 12.5 μg/ml): Inh
EL-4 Adherence ([2]; Table 4, 25 μg/ml): Inh
Inhibition using the EL-4 Adherence assay ([2]; in words): strong
IC50 ([3]; Table 4, MTT, 72 hours, read-out: A549 IC50): 0.04 µg/mL (≈ 0.0574 µM)
IC50 ([3]; read-out: IC50 against cultured human lung carcinoma cells (A549)): 0.04 µg/mL (≈ 0.0574 µM)
